Read-outs that look alike come from different tables or passages of the source.
Key:
[1] = after drinking 2 cups of green tea; cited from earlier work
[2] = Stability of nano-encapsulated and native EGCG in 1×PBS at pH 7.4; type: physicochemical; details: neutral pH (7.4)
Description: Three independent experiments were conducted at each time point.
The degradation rate of EGCG in NLCs and CSNLCs were much slower.
(§1) The chemical stability is measured by detecting remaining phytochemicals' concentrations at different time points using the HPLC system. The release profile is measured using a dialysis method. Briefly, native phytochemicals and NCs are each put into dialysis bags with Molecular Weight Cut Off (MWCO) 6,000-8,000. The dialysis bags are dipped into the dissolution medium composed of 1×PBS and methanol (9:1, v:v). The dissolution medium is stirred at 200 rpm at 4° C. and 22° C. The dissolution medium is changed completely every 2 hours for the first 24 hours, and every 6 hours for the rest 30 days. The amounts of phytochemicals in the release medium are measured using the above HPLC methods.

[3] = after drinking tea containing catechins at 10 mg/kg body weight; cited from earlier work
[4] = In vitro release profile (dialysis method); type: physicochemical; details: for release profile: 37° C. (FIG. 17C)
Description: as §1
Using R-NPs as an example, the NPs were stable at both 4° C. and 22° C. (FIG. 17A). Nanoencapsulation increased R's stability (FIG. 17B). Similarly, Q and RQ were also stable at 4° C. and 22° C. after encapsulation. A dialysis method was used to measure R and Q release profiles from NPs at 37° C. […] The release profiles of NPs were even slower at 4° C. and 22° C.

E coli (ATCC 43895) = assay: Antibacterial activity (absorbance at 595 nm), Example 3; type: cell-based; details: 300 μg/mL R or Q; free RQ 240 μg/mL (FIG. 19B)
Source text: (§2) The antibacterial activity of all NPs and their controls against Salmonella enterica subsp. enterica (S. enterica ATCC 13076), Listeria monocytogenes (L. monocytogenes ATCC 15313), E coli (ATCC 43895) and Staphylococcus aureus subsp. aureus (S. aureus ATCC 25923) were investigated.

[5] = test system: L. monocytogenes ATCC 15313; assay: as above; type: cell-based, Listeria monocytogenes; details: 300 μg/mL R or Q; free RQ 240 μg/mL (FIG. 19C)
Source text: as §2

[6] = Pharmacokinetics and bioavailability of Q after oral administration to rats; details: male, Sprague-Dawley, rat, 50 mg/kg
Description: Male Sprague-Dawley rats (n=3 per group) weighing 200-250 g were purchased pre-cannulated from Harlan Laboratories (Indianapolis, IN). The rounded tips catheters were surgically implanted into the jugular vein of the rats with the benefits of multiple blood draw. […] Blood was collected via the catheters at hour 0, 1, 2, 3, 4, 6, 8, 10, 14, 24, 36, and 48 into heparinized tubes. Blood Q concentrations were measured using a HPLC system (FIG. 5). Pharmacokinetic parameters were determined on each individual set of data by using a non-compartmental model (Song I, Eur J Clin Pharmacol. 2016; 72:665-670). […] The relative bioavailability Fr at infinity was calculated as Fr=AUCQ-NLC, […]/AUCQ, 0→∞. The half-life (t1/2)=0.693/k. The mean residence time (MRT)=1/k.
Male Sprague-Dawley rats (n=3 per group) weighing 200-250 g and the rounded tips catheters were surgically implanted into the jugular vein of the rats with the benefits of multiple blood draw. […] Blood was collected via the catheters at hour 0, 1, 2, 3, 4, 6, 8, 10, 14, 24, 36, and 48 into heparinized tubes. Blood Q concentrations were measured using an HPLC system (FIG. 21). Pharmacokinetic parameters were determined on each individual set of data by using a non-compartmental model. […] The area under the plasma concentration time curve from time zero to infinity (AUC0→∞) was calculated as AUC0→24 h+Ct/Ke, where Ct was the Q concentration observed at the […] time, and Ke is the apparent elimination rate constant obtained from the terminal slope of the individual plasma concentration-time curves after logarithmic transformation of the plasma concentration values and application of linear regression. The relative bioavailability Fr at infinity was calculated as Fr=AUCQ-NP, 0→∞/AUCQ, 0→∞. The half-life (t1/2)=0.693/k. The mean residence time (MRT)=1/k.

[7] = room temperature; cited from earlier work
[8] = cited from earlier work
[9] = test system: S. enteritidis (13076), L. monocytogenes (15313), E. coli (48953) and S. aureus (25923); assay: Anti-bacterial assay, Example 2, result stated for the four strains together; type: cell-based; parameters: anti-bacterial effects: dose or concentration left out as unconfirmed
Description: The concentrations of R and Q in the NPs were characterized by HPLC. Three parallel experiments were performed for each sample, the absorbance of bacteria solution treated with different samples was measured by a microplate reader at a wavelength of 600 nm. S. enteritidis (13076), L. monocytogenes (15313), E. coli (48953) and S. aureus (25923) were used in this study and treated with R-NPs, Q-NPs, RQ-NPs, and CS-coated R-NPs, Q-NPs, and RQ-NPs, respectively. Different concentrations of R-NPs and Q-NPs were investigated. Initially, 50 μg/mL R and R-NPs were used. […] S. enteritidis, L. monocytogenes, E. coli and S. aureus were cultured in broth media under constant shaking at 100 rpm at 37° C. to reach the mid exponential growth phase. The number of bacteria was determined by counting the CFU formed on the agar plate. Bacterial suspensions were diluted to approximately 1×10^4-5 CFU/mL in broth media. The NPs solution (20 μL) was mixed with 180 μL of bacterial suspension in a 96-well plate, and the experiments were performed in triplicates. […]

E. coli (48953) = assay: Anti-bacterial assay (OD 600 nm, CFU), Example 2; type: cell-based; details: 100 μg/mL, 24 h of incubation
Description: (§3) The concentrations of R and Q in the NPs were characterized by HPLC. Three parallel experiments were performed for each sample, the absorbance of bacteria solution treated with different samples was measured by a microplate reader at a wavelength of 600 nm. S. enteritidis (13076), L. monocytogenes (15313), E. coli (48953) and S. aureus (25923) were used in this study and treated with R-NPs, Q-NPs, RQ-NPs, and CS-coated R-NPs, Q-NPs, and RQ-NPs, respectively. Different concentrations of R-NPs and Q-NPs were investigated. Initially, 50 μg/mL R and R-NPs were used. […] S. enteritidis, L. monocytogenes, E. coli and S. aureus were cultured in broth media under constant shaking at 100 rpm at 37° C. to reach the mid exponential growth phase. The number of bacteria was determined by counting the CFU formed on the agar plate. Bacterial suspensions were diluted to approximately 1×10^4-5 CFU/mL in broth media. The NPs solution (20 μL) was mixed with 180 μL of bacterial suspension in a 96-well plate, and the experiments were performed in triplicates. The plates were incubated at 37° C. under constant shaking at 100 rpm overnight, and the optical density (OD) at 600 nm was measured on a plate reader.

S. enteritidis (13076) = assay: Anti-bacterial assay (OD 600 nm, CFU), Example 2; type: cell-based; details: 100 μg/mL, 24 h of incubation
Description: as §3

L. monocytogenes (15313) = assay: Anti-bacterial assay (OD 600 nm, CFU), Example 2; type: cell-based; details: 100 μg/mL, 24 h of incubation
Description: as §3

S. aureus (25923) = assay: Anti-bacterial assay (OD 600 nm, CFU), Example 2; type: cell-based; details: 100 μg/mL, 24 h of incubation
Description: as §3

[10] = pH>7; cited from earlier work

O=C(O[C@@H]1Cc2c(O)cc(O)cc2O[C@@H]1c1cc(O)c(O)c(O)c1)c1cc(O)c(O)c(O)c1 [EGCG, Epigallocatechin Gallate]
peak plasma EGCG concentration [1]: 0.15 UM
time to complete degradation ([2]; 4° C.): 24 h
time to complete degradation ([2]; 25° C.): 6 h
time to complete degradation ([2]; 37° C.): 3 h
absolute oral bioavailability [3]: about 0.1%

O=c1c(O)c(-c2ccc(O)c(O)c2)oc2cc(O)cc(O)c12 [Q]
release profile ([4]; dialysis method): burst release
release pattern ([4]; dialysis method, release medium (FIG. 4B)): burst release pattern
growth inhibition (E coli (ATCC 43895)): inhibited growth
growth inhibition [5]: inhibited growth
half-life ([6]; in vivo): 16.7 ± 10.5 h
Cmax ([6]; po): 0.964 ± 0.536 µg/mL
Ke ([6]; po): 0.07 ± 0.06 h⁻¹
MRT ([6]; po): 12.1 ± 15.1 h
Tmax ([6]; po): 2 h
AUC ([6]; po, AUCo→24 h): 14.6 ± 6.27 µg·h/mL
AUC ([6]; po, AUCo→∞): 15.3 ± 6.09 µg·h/mL
dissolution of 20 mg in 10 mL of 1×PBS [7]: not able to be dissolved

Oc1ccc(/C=C/c2cc(O)cc(O)c2)cc1 [R, 3,5,4′-tri-hydroxy-trans-stilbene]
release behavior ([4]; RES NPs study): burst release
release profile ([4]; dialysis method): burst release
aqueous solubility [8]: < 0.1 mg/mL
anti-bacterial effects ([9]; 6 h of incubation): significant anti-bacterial effects
anti-bacterial effects of 300 μg/mL compared with 200 μg/mL ([9]; FIG. 9): significant enhanced anti-bacterial effects
growth inhibition (E coli (ATCC 43895)): inhibited growth
growth inhibition [5]: inhibited growth
anti-bacterial effects (E. coli (48953)): showed anti-bacterial effects
growth (CFU formation) (E. coli (48953)): significantly decreased the growth
growth (CFU formation) (S. enteritidis (13076)): still not shown
growth (CFU formation) (L. monocytogenes (15313)): still not shown
anti-bacterial effects (S. aureus (25923)): showed anti-bacterial effects
growth (CFU formation) (S. aureus (25923)): significantly decreased the growth

COc1cc(/C=C/C(=O)CC(=O)/C=C/c2ccc(O)c(OC)c2)ccc1O [curcumin, Curcumin]
solubility in water [8]: less than 0.1 mg/mL
half-life [10]: < 0.167 h
